A short description of the data set: Human HepG2 cell viability assay in 384 well format. Type of data set: toxicity, cell-based. Set-up: dose 125 nL, time 70.5 hour; concentration not given beside the values. The following applies: HepG2 cells, read-out: Inhibition.

Consider `CCN(CC(=O)NC(C)C)S(=O)(=O)N1CCCCCC1`, for which the cytotoxicity at 70.5 h is -5.99%.

For the compound `O=C1NCCCCC1Sc1ccc(F)cc1F` (stereo not given), the cytotoxicity at 70.5 h is 7.77%.

With `Cc1cc(=O)[nH]c(-n2nc(-c3ccccc3)cc2N)n1`, the cytotoxicity at 70.5 h turned out to be 12.5%.

In the case of `COc1ccc2nnc(CCC(=O)Nc3nc4c(s3)CCC4)n2n1`, the cytotoxicity at 70.5 h is -25.1%. For `CCN1CCN(C(C)CNC(=O)Nc2nnc(C)s2)CC1` (stereo not given), the cytotoxicity at 70.5 h is -10.5%. In the case of `Cc1cc(NC(=O)NCC2CCN(C(C)C)C2)no1` (stereo not given), the cytotoxicity at 70.5 h is -5.36%. `COc1ccc2oc(C(C)NC(=O)NC3CCN(C)CC3)c(C)c2c1` (stereo not given): the cytotoxicity at 70.5 h is -13.4%. Turning to `CCS(=O)(=O)NCCNc1cc(-n2cccc2)ncn1`, the cytotoxicity at 70.5 h was -0.787%. With `O=S(=O)(NCCNc1cc(-n2cccc2)ncn1)c1cccs1`, the cytotoxicity at 70.5 h is -2.52%. As for `CS(=O)(=O)N1CCN(c2cc(-n3cccc3)ncn2)CC1`, the cytotoxicity at 70.5 h was -4.46%. As for `CC(=O)OC1CN(c2nc3c(Cl)cccc3s2)C1`, the cytotoxicity at 70.5 h was -9.84%. As for `CC(=O)OC1CN(c2nc3c(C)cccc3s2)C1`, the cytotoxicity at 70.5 h was -15.1%.

For the compound `CNC(=O)c1ccc2c(OC)n(C)nc2c1`, the cytotoxicity at 70.5 h is -1.72%. The same measure for `CN(C)CC1CSCCCN1C(=O)c1cccc(C(F)(F)F)c1` (stereo not given): 3.74%. As for `CN(C)CC1CSCCCN1S(=O)(=O)Cc1ccc(C(F)(F)F)cc1` (stereo not given), the cytotoxicity at 70.5 h is -0.0412%. On to `Cc1cccc(C(=O)N2CCCSCC2CN2CCCC2)c1` (stereo not given), for which the cytotoxicity at 70.5 h is -0.415%. As for `CSc1ccccc1NC(=O)C1CSc2ncc(C)c(=O)n2C1` (stereo not given), the cytotoxicity at 70.5 h was -10.7%. Consider `COc1ccc(C)cc1NC(=O)C1CSc2ncc(C)c(=O)n2C1` (stereo not given), for which the cytotoxicity at 70.5 h came out at 8.57%. With `Cc1cnc2n(c1=O)CC(C(=O)Nc1ccon1)CS2` (stereo not given), the cytotoxicity at 70.5 h is -13.7%. For `CCc1c(C)nc2n(c1=O)CC(C(=O)Nc1ccccc1C)CS2` (stereo not given), the cytotoxicity at 70.5 h was 4.11%. The same measure for `CCc1c(C)nc2n(c1=O)CC(C(=O)Nc1ncccc1C)CS2` (stereo not given): -8.04%.

For the compound `COc1cc(C(=O)NCCc2ccccc2OC)on1`, the cytotoxicity at 70.5 h is -1.09%. For the compound `COc1cc(C(=O)NCCc2ccc(Cl)cc2)on1`, the cytotoxicity at 70.5 h worked out at 0.265%. As to `O=S(=O)(NCC(O)c1ccc2c(c1)CCO2)c1ccccc1F` (stereo not given), the cytotoxicity at 70.5 h was -13.3%. For `O=C(NCC1(O)CCc2ccccc2C1)c1cccs1` (stereo not given), the cytotoxicity at 70.5 h is -14.5%. Take `O=C(Cn1c(=O)oc2ccccc21)NCC1(O)CCc2ccccc2C1` (stereo not given): the cytotoxicity at 70.5 h was -2.64%. As for `O=C(NCc1cccs1)NCC1(O)CCc2ccccc2C1` (stereo not given), the cytotoxicity at 70.5 h is -5.04%.

In the case of `COCCN(Cc1ccoc1)C(=O)c1ccccn1`, the cytotoxicity at 70.5 h is -3.55%. Turning to `COCCN(Cc1ccoc1)C(=O)c1c(F)cccc1F`, the cytotoxicity at 70.5 h was -3.64%. Turning to `CCOc1ccc(S(=O)(=O)N(CCOC)Cc2ccoc2)cc1F`, the cytotoxicity at 70.5 h was -11.6%. With `O=S(=O)(NCCC(O)c1ccoc1)c1ccc(Cl)s1` (stereo not given), the cytotoxicity at 70.5 h is -0.192%. Consider `COC(=O)c1sccc1S(=O)(=O)NCCC(O)c1ccoc1` (stereo not given), for which the cytotoxicity at 70.5 h is -0.756%.

Take `O=C(NCCC(O)c1ccoc1)Nc1cccs1` (stereo not given): the cytotoxicity at 70.5 h is -9.28%. Take `COC1(CNC(=O)c2ccsc2)CCSC1` (stereo not given): the cytotoxicity at 70.5 h was -13%. For the compound `COC1(CNC(=O)CCCc2ccccc2)CCSC1` (stereo not given), the cytotoxicity at 70.5 h was -0.238%. To `COC1(CNC(=O)c2ccc3nsnc3c2)CCSC1` (stereo not given) belongs -18.3%; to `COC1(CNC(=O)c2ccc(Cl)c(Cl)c2)CCSC1` (stereo not given), -15%. Regarding `COC1(CNS(=O)(=O)c2ccccc2Cl)CCSC1` (stereo not given), the cytotoxicity at 70.5 h is -7.26%.

Turning to `COC1(CNC(=O)NCc2ccccc2)CCSC1` (stereo not given), the cytotoxicity at 70.5 h was -9.9%. The same measure for `COC1(CNC(=O)NCCOc2ccccc2)CCSC1` (stereo not given): 1.02%; for `Cc1cccnc1NC(=O)c1ccc(-n2cncn2)nn1`: 1.65%.

Regarding `O=C(NCCn1nc(-n2cncn2)ccc1=O)c1ccccc1Br`, the cytotoxicity at 70.5 h is -5.84%. For `Cc1nn(C)c(C)c1S(=O)(=O)NCC1CCN(c2ccccn2)CC1`, the cytotoxicity at 70.5 h came to 0.358%.

For the compound `Cn1cnc(S(=O)(=O)NCC2(O)CCc3ccccc3C2)c1` (stereo not given), the cytotoxicity at 70.5 h is -7.71%. Turning to `Cn1cc(C(=O)Nc2ccc3c(c2)N(C(=O)c2ccco2)CC3)nn1`, the cytotoxicity at 70.5 h stood at 0.738%. `CC(=O)N1CCc2ccc(NC(=O)c3cn(C)nn3)cc2C1`: the cytotoxicity at 70.5 h is -5.41%. Consider `Cn1cc(C(=O)Nc2ccc3c(c2)CN(C(=O)C2CC2)CC3)nn1`, for which the cytotoxicity at 70.5 h was -8.54%. As to `Cn1cc(S(=O)(=O)NCCc2ccsc2)cn1`, the cytotoxicity at 70.5 h was -6.26%. Consider `COC(=O)N1CCC(CNS(=O)(=O)c2cnn(C)c2)CC1`, for which the cytotoxicity at 70.5 h is -0.269%. To `Cn1cc(C(=O)Nc2ccc(CC(=O)NCC(F)(F)F)cc2)nn1` belongs -6.55%; to `Cc1nc(N(C)C)nc(C)c1NC(=O)c1ccco1`, -3.93%. As for `Cc1nc(N2CCOCC2)nc(C)c1NC(=O)COc1ccccc1`, the cytotoxicity at 70.5 h is -1.69%. To `COc1ccc(CC(=O)Nc2c(C)nc(N3CCOCC3)nc2C)cc1` belongs 1.49%; to `CCS(=O)(=O)NCc1nc(C)cc(N2CCCCC2)n1`, -7.45%.

Take `O=C(NCCNc1cc(N2CCCC2)cnn1)Nc1ccccc1F`: the cytotoxicity at 70.5 h was -2.71%.

With `COc1ncc(NC(=O)c2ccco2)c(OC)n1`, the cytotoxicity at 70.5 h turned out to be 7.73%. On to `CCOc1ncc(NC(=O)c2ccco2)c(OCC)n1`, for which the cytotoxicity at 70.5 h is -0.599%.

As to `O=C(NCCn1ccc(-c2ccncc2)n1)C1CC1`, the cytotoxicity at 70.5 h was -12%.

On to `CCOCC(=O)NCCn1ccc(-c2ccccn2)n1`, for which the cytotoxicity at 70.5 h is -4.11%. For `O=S(=O)(NCCn1ccc(-c2ccccn2)n1)C1CC1`, the cytotoxicity at 70.5 h was -0.0974%. To `O=S(=O)(NCCn1ccc(-c2cccs2)n1)C1CC1` belongs -0.924%. Consider `Cc1nn(C)c(C)c1S(=O)(=O)NCCn1ccc(-c2cccs2)n1`, for which the cytotoxicity at 70.5 h was -0.512%.

Turning to `Cc1cccc(CS(=O)(=O)NCc2nn(C)c3c2CCCC3)c1`, the cytotoxicity at 70.5 h is -2.52%. The same measure for `O=C(CN1C(=O)CCC1=O)NCc1nn(C2CCCC2)c2c1CCCC2`: -2.19%; for `Cn1nc(CNC(=O)c2cccc(C(F)(F)F)c2)c2c1CCOC2`: -3.96%; for `Cc1ccnc(OC[C@]23COC[C@H]2CN(C(=O)Cc2ccsc2)C3)n1`: -7.56%. The same measure for `O=C(NCCc1ccncc1)[C@H]1C[C@@H]2CCN(c3nncs3)C[C@H]2O1`: -11.9%; for `Cc1cccc(CN2CC3(CCN(C(N)=O)CC3)OCC2=O)n1`: -10.4%.

In the case of `COCC(=O)N1CCC2(COCc3c(C)nc(N(C)C)nc32)C1` (stereo not given), the cytotoxicity at 70.5 h amounted to 15.4%. In the case of `CC(C)COCC1CN(Cc2ccco2)Cc2ncn(C)c21` (stereo not given), the cytotoxicity at 70.5 h was -6.93%. Take `CC(C)COCC1CN(Cc2ccsc2)Cc2ncn(C)c21` (stereo not given): the cytotoxicity at 70.5 h was -9.98%. For `CCc1cccc(NC(=O)N2CCn3cnc(COC)c3C2)c1`, the cytotoxicity at 70.5 h is -14.2%.

In the case of `Cc1ccc(N2CC[C@H]3OCC[C@@]3(C(=O)N(C)C)C2)nn1`, the cytotoxicity at 70.5 h was -8.34%. `CCN1CCC2(COCc3c(C)nc(N(C)C)nc32)C1` (stereo not given): the cytotoxicity at 70.5 h is -8.16%.

As to `CC(C)CN1C(=O)C2(CCN(Cc3ccc(F)cc3)C2)c2ccccc21` (stereo not given), the cytotoxicity at 70.5 h was -0.325%.

Regarding `COCc1cncc2c1CCN(Cc1cccnc1)C2`, the cytotoxicity at 70.5 h was -3.24%. On to `COCCO[C@H]1CCN(c2ccc(C)nn2)[C@H]1Cc1cnn(C)c1`, for which the cytotoxicity at 70.5 h is -3.27%.

`CC(=O)NCC(=O)N1CCOC2(CCCN(c3ccc(C)nn3)C2)C1` (stereo not given): the cytotoxicity at 70.5 h is -11.9%. Take `CN1CCN(C(=O)[C@H]2C[C@H]3[C@H](CCN3Cc3nccs3)O2)CC1`: the cytotoxicity at 70.5 h is -10.8%. On to `CC(=O)N1CC(=O)N(c2cnn(C)c2)CC12CCN(Cc1ccco1)C2` (stereo not given), for which the cytotoxicity at 70.5 h is -16.8%. For `Cc1cccc(NC(=O)N2CCCn3cnc(CN(C)C(C)C)c3C2)c1`, the cytotoxicity at 70.5 h turned out to be 17.2%. For the compound `Cn1ccnc1CN1CCC(F)(F)C2(CCN(c3cnccn3)C2)C1` (stereo not given), the cytotoxicity at 70.5 h was 19.3%. Regarding `O=S(=O)(C1CC1)N1CCO[C@H]2[C@@H](Oc3ncccc3F)CC[C@@H]21`, the cytotoxicity at 70.5 h is -8.02%. Regarding `CC(C)CN1C(=O)C2(CCN(Cc3ccsc3)C2)c2ccccc21` (stereo not given), the cytotoxicity at 70.5 h was -13%. Regarding `CNC(=O)[C@@H]1CCO[C@@H]2CCN(CCc3ccccc3)C[C@H]21`, the cytotoxicity at 70.5 h is -3.11%. As for `CCCS(=O)(=O)N1CCO[C@H]2[C@@H](Oc3cccnc3)CC[C@@H]21`, the cytotoxicity at 70.5 h is -1.96%. Consider `CN(C)c1ncc(-c2cc(C(=O)NCCO)n(CC3CC3)c2)cn1`, for which the cytotoxicity at 70.5 h was -6%.

`CCCS(=O)(=O)N1C[C@@H](Oc2ncccc2F)[C@H]2OCCC[C@H]21`: the cytotoxicity at 70.5 h is -10.6%. Regarding `O=C(NCC1CC1)[C@@H]1CCO[C@@H]2CCN(CCc3ccccc3)C[C@H]21`, the cytotoxicity at 70.5 h was -5.09%. The same measure for `CN(C)C(=O)[C@@H]1C[C@@H]2[C@@H](CCN2Cc2nccs2)O1`: -5.24%. With `CC1=N[C@@]2(CC[C@@H]3CN(Cc4ccc(C)cc4)C[C@@H]32)C(=O)N1CC1CC1`, the cytotoxicity at 70.5 h is -12.4%. To `O=C(c1cnccn1)N1CCOC2(CCCN(c3ncccc3F)C2)C1` (stereo not given) belongs -16.1%. With `Fc1ccc(CN2CCC3(CC2)CC(c2cccnc2)CO3)cc1` (stereo not given), the cytotoxicity at 70.5 h is -0.689%.

In the case of `CN1C(Cn2cccn2)C[C@@H]2CN(C(=O)c3cccc(C#N)c3)CC[C@@H]21` (stereo not given in full), the cytotoxicity at 70.5 h is -7.79%.

For the compound `CC(C)N(C)Cc1cnc2n1CCN(Cc1ccco1)C2`, the cytotoxicity at 70.5 h was -14%.

For `CNC(=O)CN1CCOCC2(CCCN(CCc3ccccc3)C2)C1` (stereo not given), the cytotoxicity at 70.5 h is -10.9%. The same measure for `CCN1CCn2c(C)cnc2C12CCN(C(=O)C(C)C)CC2`: -15.2%; for `FC1(F)CCN(Cc2cccnc2)CC12CCN(c1cnccn1)C2` (stereo not given): -12.8%.

`FC1(F)CCN(Cc2ccncc2)CC12CCN(c1cnccn1)C2` (stereo not given): the cytotoxicity at 70.5 h is -8.66%. Turning to `c1ccc(CN2CCc3c(COCC4CC4)cncc3C2)nc1`, the cytotoxicity at 70.5 h was -11.4%.
